These are literature values, as cited in patent publication US20240293600A1, “COMPOSITIONS, METHODS, AND DEVICES FOR SUSTAINED RELEASE OF AN AGENT” (Board of Supervisors of Louisiana State University and …, priority 2021, published 2024).

Molecules are shown by their SMILES.

For `O=c1c(O)c(-c2ccc(O)c(O)c2)oc2cc(O)cc(O)c12` [Quercetin, 2-(3,4-dihydroxyphenyl)-3,5,7-trihydroxy-4H-1-benzopyran-4-one], the solubility in water result is listed as “practically insoluble in water”.
